Results as given in ChEMBL document CHEMBL1131494, “Novel 17-azolyl steroids, potent inhibitors of human cytochrome 17 alpha-hydroxylase-C17,20-lyase (P450(17) alpha): potential agents for the treatment of prostate cancer” (J Med Chem, 1998).

Experiments:
[1] = target: T1, Steroid 17-alpha-hydroxylase/17,20 lyase (Homo sapiens, UniProt P05093); test: Inhibition of human testicular microsomal Cytochrome P450 17A1
T1 sequence (P05093 whole entry): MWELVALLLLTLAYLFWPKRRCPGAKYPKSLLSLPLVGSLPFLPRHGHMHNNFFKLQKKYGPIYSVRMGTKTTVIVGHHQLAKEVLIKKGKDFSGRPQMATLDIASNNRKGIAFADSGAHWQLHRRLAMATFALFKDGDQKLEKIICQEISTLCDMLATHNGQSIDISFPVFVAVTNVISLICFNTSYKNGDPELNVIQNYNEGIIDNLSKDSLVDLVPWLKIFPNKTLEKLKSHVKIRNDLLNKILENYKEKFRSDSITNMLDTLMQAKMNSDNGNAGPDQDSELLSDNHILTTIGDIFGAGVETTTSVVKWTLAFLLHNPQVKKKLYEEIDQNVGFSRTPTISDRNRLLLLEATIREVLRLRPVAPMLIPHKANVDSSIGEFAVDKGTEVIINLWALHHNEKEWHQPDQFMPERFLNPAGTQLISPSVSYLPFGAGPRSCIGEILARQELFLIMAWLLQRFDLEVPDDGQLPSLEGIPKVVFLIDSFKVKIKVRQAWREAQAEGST

[2] = target: T2, Steroid 17-alpha-hydroxylase/17,20 lyase (Rattus norvegicus, UniProt P11715); test: Inhibition of rat Cytochrome P450 17A1
T2 sequence (P11715 whole entry): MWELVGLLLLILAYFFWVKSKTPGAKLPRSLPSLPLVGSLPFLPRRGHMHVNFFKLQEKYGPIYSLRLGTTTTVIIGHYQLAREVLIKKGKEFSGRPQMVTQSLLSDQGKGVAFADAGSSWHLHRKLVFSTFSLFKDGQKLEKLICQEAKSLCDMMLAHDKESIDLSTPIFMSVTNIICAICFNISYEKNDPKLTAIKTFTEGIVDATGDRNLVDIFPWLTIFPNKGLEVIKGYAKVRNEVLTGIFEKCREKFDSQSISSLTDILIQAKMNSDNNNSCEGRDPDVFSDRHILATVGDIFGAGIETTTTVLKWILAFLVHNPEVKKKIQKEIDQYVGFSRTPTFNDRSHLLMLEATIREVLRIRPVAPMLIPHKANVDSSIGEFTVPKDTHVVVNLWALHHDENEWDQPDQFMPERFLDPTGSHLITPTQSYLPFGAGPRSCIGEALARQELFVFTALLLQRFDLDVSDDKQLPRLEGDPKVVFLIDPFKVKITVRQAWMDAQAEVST

[3] = Inhibition of human steroid 5-alpha-reductase
[4] = target: T1, Steroid 17-alpha-hydroxylase/17,20 lyase
Description: Binding affinity for Cytochrome P450 17A1 (17-alpha-hydroxypregnenolone Km=560 nM)

[5] = target: T1, Steroid 17-alpha-hydroxylase/17,20 lyase; remark: listed apart in the source
[6] = target: T2, Steroid 17-alpha-hydroxylase/17,20 lyase; test: Inhibition of rat cytochrome P450 17A1
[7] = target: T1, Steroid 17-alpha-hydroxylase/17,20 lyase; test: Inhibition of human testicular microsomal cytochrome P450 17A1 at 150 nM; NI = No inhibition; conditions: 0.15 µM
[8] = target: T1, Steroid 17-alpha-hydroxylase/17,20 lyase; test: Inhibition of human testicular microsomal cytochrome P450 17A1 at 150 nM; NI = No inhibition; conditions: 0.15 µM
[9] = target: T1, Steroid 17-alpha-hydroxylase/17,20 lyase; test: Inhibition of human testicular microsomal cytochrome P450 17A1 at 150 nM; no inhibition

Row | SMILES | IC50 [1] [nM] | IC50 [2] [nM] | IC50 [3] [nM] | Ki [4] [nM] | other results
1 | C[C@]12CC[C@H](O)CC1=CCC1C2CC[C@]2(C)C(n3ccnn3)=CCC12 (stereo partly drawn) | 13 | 10 | 10000 | 1.4 | –
2 | C[C@]12CCC(=O)C=C1CCC1C2CC[C@]2(C)C(n3ccnn3)=CCC12 (stereo partly drawn) | 19 | – | 198 | – | Ki [5]: 8 nM; IC50 [6]: 9 nM
3 | C[C@]12CCC(=O)C=C1CCC1C2CC[C@]2(C)C(n3cncn3)=CCC12 (stereo partly drawn) | 55 | 11 | 152 | 41 | –
4 | C[C@]12CCC(=O)C=C1CCC1C2CC[C@]2(C)C(n3ccnc3)=CCC12 (stereo partly drawn) | 7 | 8 | 142 | 1.9 | –
5 | C[C@]12CC[C@H](O)CC1=CCC1C2CC[C@]2(C)C(n3ncnn3)=CCC12 (stereo partly drawn) | – | – | – | – | Inhibition [7]: Not Active
6 | C[C@]12CC[C@H](O)CC1=CCC1C2CC[C@]2(C)C(n3ccnc3)=CCC12 (stereo partly drawn) | 8 | 9 | 400000 | 1.2 | –
7 | CC(C)(C)NC(=O)[C@H]1CC[C@H]2[C@@H]3CC[C@H]4NC(=O)C=C[C@]4(C)[C@H]3CC[C@]12C [FINASTERIDE] | – | – | 33 | – | –
8 | C[C@]12CC[C@H](O)CC1=CCC1C2CC[C@]2(C)C(n3cnnn3)=CCC12 (stereo partly drawn) | – | – | – | – | Inhibition [8]: Not Active
9 | C[C@]12CC[C@H](O)CC1=CC[C@@H]1[C@@H]2CC[C@]2(C)C(n3cncn3)=CC[C@@H]12 | 90 | – | 160000 | 23 | IC50 [6]: 26 nM
10 | C[C@]12CC[C@H](O)CC1=CCC1C2CC[C@]2(C)C(n3nccn3)=CCC12 (stereo partly drawn) | – | – | – | – | IC50 [9]: Not Active
